Data from patent publication US20120121591A1 (priority 2009, published 2012).

Assays:
Format in all cases: cell-based
[1] = system: IFN-g secretion from T cells in human whole blood; conditions: read-out: WB (IFNg) IC50 (nM, Avg)
hKv1.3 = hKv1.3 (Homo sapiens, UniProt P22001); assay: cell-based; conditions: Kv1.3 (IWQ) IC50 (nM, Avg)
[2] = system: IL-2 secretion from T cells in human whole blood; conditions: read-out: WB (IL-2) IC50 (nM, Avg)

hKv1.3, sequence (P22001 whole entry): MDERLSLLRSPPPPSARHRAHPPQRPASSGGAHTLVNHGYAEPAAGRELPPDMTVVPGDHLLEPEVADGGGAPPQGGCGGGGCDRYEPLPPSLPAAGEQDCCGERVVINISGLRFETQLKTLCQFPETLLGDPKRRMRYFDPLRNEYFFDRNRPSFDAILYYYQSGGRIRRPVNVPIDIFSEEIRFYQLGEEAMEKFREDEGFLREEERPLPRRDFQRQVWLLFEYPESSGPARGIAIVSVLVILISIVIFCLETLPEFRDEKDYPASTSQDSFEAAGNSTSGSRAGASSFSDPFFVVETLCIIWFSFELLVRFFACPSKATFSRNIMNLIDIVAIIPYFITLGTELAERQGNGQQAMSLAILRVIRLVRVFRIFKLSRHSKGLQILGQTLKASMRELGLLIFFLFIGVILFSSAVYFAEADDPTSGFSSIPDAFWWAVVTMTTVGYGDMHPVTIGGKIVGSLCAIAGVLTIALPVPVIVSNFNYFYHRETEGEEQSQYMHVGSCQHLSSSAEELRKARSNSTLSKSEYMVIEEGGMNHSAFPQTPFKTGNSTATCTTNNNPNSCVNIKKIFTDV

Compound | IC50 [1] [nM] | IC50 (hKv1.3) [nM] | IC50 [2] [nM]
CC[C@H](C)[C@@H]1NC(=O)[C@@H](NC(=O)[C@H](CO)NC(=O)[C@@H](N)CCCNC(=N)N)CSSC[C@@H](C(=O)O)NC(=O)[C@H]([C@@H](C)O)NC(=O)CNC(=O)[C@@H]2CSSC[C@@H]3NC(=O)[C@H](CCC(N)=O)NC(=O)[C@H](Cc4ccccc4)NC(=O)[C@H](C)NC(=O)[C@H]([C@@H](C)O)NC(=O)[C@H](CSSC[C@H](NC(=O)[C@H](Cc4cccc5ccccc45)NC(=O)[C@H](CO)NC(=O)[C@H](CC(C)C)NC(=O)[C@H](CCCNC(=N)N)NC(=O)[C@H](Cc4ccc(O)cc4)NC(=O)[C@H](CCCCN)NC(=O)[C@H](CCSC)NC(=O)[C@H](CO)NC(=O)[C@H](Cc4c[nH]cn4)NC(=O)[C@H](CCCCN)NC3=O)C(=O)N[C@@H](CCCNC(=N)N)C(=O)N[C@@H](CCCCN)C(=O)N[C@@H]([C@@H](C)O)C(=O)N2)NC(=O)[C@H](CCCNC(=N)N)NC(=O)[C@H](CO)NC(=O)[C@H](CCCCN)NC(=O)[C@@H]2CCCN2C(=O)[C@H]([C@@H](C)CC)NC(=O)[C@H]([C@@H](C)O)NC(=O)[C@H](CC(=O)O)NC1=O [[1-Nal27]ShK] | 2.84 | 0.144 | 1.07
CC[C@H](C)[C@@H]1NC(=O)[C@@H](NC(=O)[C@H](CO)NC(=O)[C@@H](N)CCCNC(=N)N)CSSC[C@@H](C(=O)O)NC(=O)[C@H]([C@@H](C)O)NC(=O)CNC(=O)[C@@H]2CSSC[C@@H]3NC(=O)[C@H](CCC(N)=O)NC(=O)[C@H](Cc4ccccc4)NC(=O)[C@H](C)NC(=O)[C@H]([C@@H](C)O)NC(=O)[C@H](CSSC[C@H](NC(=O)[C@H](Cc4ccccc4)NC(=O)[C@H](CO)NC(=O)[C@H](CC(C)C)NC(=O)[C@H](CCCNC(=N)N)NC(=O)[C@H](Cc4ccc(O)cc4)NC(=O)[C@H](CCCCN)NC(=O)[C@H](CCSC)NC(=O)[C@H](CO)NC(=O)[C@H](Cc4c[nH]cn4)NC(=O)[C@H](CCCCN)NC3=O)C(=O)N[C@@H](Cc3cccc4ccccc34)C(=O)N[C@@H](CCCCN)C(=O)N[C@@H]([C@@H](C)O)C(=O)N2)NC(=O)[C@H](CCCNC(=N)N)NC(=O)[C@H](CO)NC(=O)[C@H](CCCCN)NC(=O)[C@@H]2CCCN2C(=O)[C@H]([C@@H](C)CC)NC(=O)[C@H]([C@@H](C)O)NC(=O)[C@H](CC(=O)O)NC1=O [[1-Nal29]ShK] | 8.08 | 3.3 | 4.72
CC[C@H](C)[C@@H]1NC(=O)[C@@H](NC(=O)[C@H](CO)NC(=O)[C@H](C)N)CSSC[C@@H](C(=O)O)NC(=O)[C@H]([C@@H](C)O)NC(=O)CNC(=O)[C@@H]2CSSC[C@@H]3NC(=O)[C@H](CCC(N)=O)NC(=O)[C@H](Cc4ccccc4)NC(=O)[C@H](C)NC(=O)[C@H]([C@@H](C)O)NC(=O)[C@H](CSSC[C@H](NC(=O)[C@H](Cc4ccccc4)NC(=O)[C@H](CO)NC(=O)[C@H](CC(C)C)NC(=O)[C@H](CCCNC(=N)N)NC(=O)[C@H](Cc4ccc(O)cc4)NC(=O)[C@H](CCCCN)NC(=O)[C@H](CCSC)NC(=O)[C@H](CO)NC(=O)[C@H](Cc4c[nH]cn4)NC(=O)[C@H](CCCCN)NC3=O)C(=O)N[C@@H](CCCNC(=N)N)C(=O)N[C@@H](CCCCN)C(=O)N[C@@H]([C@@H](C)O)C(=O)N2)NC(=O)[C@H](CCCNC(=N)N)NC(=O)[C@H](CO)NC(=O)[C@H](CCCCN)NC(=O)[C@@H]2CCCN2C(=O)[C@H]([C@@H](C)CC)NC(=O)[C@H]([C@@H](C)O)NC(=O)[C@H](CC(=O)O)NC1=O [[Ala1]ShK] | 0.102 | 0.168 | 0.073
CC[C@H](C)[C@@H]1NC(=O)[C@@H](NC(=O)[C@H](CO)NC(=O)[C@@H](N)CCCNC(=N)N)CSSC[C@@H](C(=O)O)NC(=O)[C@H]([C@@H](C)O)NC(=O)CNC(=O)[C@@H]2CSSC[C@@H]3NC(=O)[C@H](CCC(N)=O)NC(=O)[C@H](Cc4ccccc4)NC(=O)[C@H](C)NC(=O)[C@H]([C@@H](C)O)NC(=O)[C@H](CSSC[C@H](NC(=O)[C@H](Cc4ccccc4)NC(=O)[C@H](CO)NC(=O)[C@H](CC(C)C)NC(=O)[C@H](CCCNC(=N)N)NC(=O)[C@H](Cc4ccc(O)cc4)NC(=O)[C@H](CCCCN)NC(=O)[C@H](CCSC)NC(=O)[C@H](CO)NC(=O)[C@H](Cc4c[nH]cn4)NC(=O)[C@H](CCCCN)NC3=O)C(=O)N[C@@H](CCCNC(=N)N)C(=O)N[C@@H](CCCCN)C(=O)N[C@@H]([C@@H](C)O)C(=O)N2)NC(=O)[C@H](CCCNC(=N)N)NC(=O)[C@H](CO)NC(=O)[C@H](CCCCN)NC(=O)[C@@H]2CCCN2C(=O)[C@H](C)NC(=O)[C@H]([C@@H](C)O)NC(=O)[C@H](CC(=O)O)NC1=O [[Ala7]ShK] | 2.22 | 0.188 | 0.886
CC[C@H](C)[C@@H]1NC(=O)[C@@H](NC(=O)[C@H](CO)NC(=O)[C@@H](N)CCCNC(=N)N)CSSC[C@@H](C(=O)O)NC(=O)[C@H]([C@@H](C)O)NC(=O)CNC(=O)[C@@H]2CSSC[C@@H]3NC(=O)[C@H](CCC(N)=O)NC(=O)[C@H](Cc4ccccc4)NC(=O)[C@H](C)NC(=O)[C@H]([C@@H](C)O)NC(=O)[C@H](CSSC[C@H](NC(=O)[C@H](Cc4ccccc4)NC(=O)[C@H](CO)NC(=O)[C@H](CC(C)C)NC(=O)[C@H](CCCNC(=N)N)NC(=O)[C@H](Cc4ccc(O)cc4)NC(=O)[C@H](CCCCN)NC(=O)[C@H](CCSC)NC(=O)[C@H](CO)NC(=O)[C@H](Cc4c[nH]cn4)NC(=O)[C@H](CCCCN)NC3=O)C(=O)N[C@@H](CCCNC(=N)N)C(=O)N[C@@H](CCCCN)C(=O)N[C@@H]([C@@H](C)O)C(=O)N2)NC(=O)[C@H](CCCNC(=N)N)NC(=O)[C@H](CO)NC(=O)[C@H](CCCCN)NC(=O)[C@H](C)NC(=O)[C@H]([C@@H](C)CC)NC(=O)[C@H]([C@@H](C)O)NC(=O)[C@H](CC(=O)O)NC1=O [[Ala8]ShK] | 0.061 | 0.078 | 0.039
CC[C@H](C)[C@@H]1NC(=O)[C@@H](NC(=O)[C@H](CO)NC(=O)[C@@H](N)CCCNC(=N)N)CSSC[C@@H](C(=O)O)NC(=O)[C@H]([C@@H](C)O)NC(=O)CNC(=O)[C@@H]2CSSC[C@@H]3NC(=O)[C@H](CCC(N)=O)NC(=O)[C@H](Cc4ccccc4)NC(=O)[C@H](C)NC(=O)[C@H]([C@@H](C)O)NC(=O)[C@H](CSSC[C@H](NC(=O)[C@H](Cc4ccccc4)NC(=O)[C@H](CO)NC(=O)[C@H](CC(C)C)NC(=O)[C@H](CCCNC(=N)N)NC(=O)[C@H](Cc4ccc(O)cc4)NC(=O)[C@H](CCCCN)NC(=O)[C@H](CCSC)NC(=O)[C@H](CO)NC(=O)[C@H](Cc4c[nH]cn4)NC(=O)[C@H](CCCCN)NC3=O)C(=O)N[C@@H](CCCNC(=N)N)C(=O)N[C@@H](CCCCN)C(=O)N[C@@H]([C@@H](C)O)C(=O)N2)NC(=O)[C@H](CCCNC(=N)N)NC(=O)[C@H](CO)NC(=O)[C@H](C)NC(=O)[C@@H]2CCCN2C(=O)[C@H]([C@@H](C)CC)NC(=O)[C@H]([C@@H](C)O)NC(=O)[C@H](CC(=O)O)NC1=O [[Ala9]ShK] | 0.103 | 0.116 | 0.053
CCCC[C@@H]1NC(=O)[C@H](CO)NC(=O)[C@H](Cc2c[nH]cn2)NC(=O)[C@H](CCCCN)NC(=O)[C@@H]2CSSC[C@@H]3NC(=O)[C@H]([C@@H](C)O)NC(=O)[C@H](CCCNC(=N)N)NC(=O)[C@H](CCCNC(=N)N)NC(=O)[C@H](CSSC[C@H](NC(=O)[C@H](CCCNC(=N)N)NC(=O)[C@H](CO)NC(=O)[C@H](CCCCN)NC(=O)[C@@H]4CCCN4C(=O)[C@H]([C@@H](C)CC)NC(=O)[C@H]([C@@H](C)O)NC(=O)[C@H](CC(=O)O)NC(=O)[C@H]([C@@H](C)CC)NC(=O)[C@@H](NC(=O)[C@H](CO)NC(=O)[C@@H](N)CCCNC(=N)N)CSSC[C@@H](C(N)=O)NC(=O)[C@H]([C@@H](C)O)NC(=O)CNC3=O)C(=O)N[C@@H]([C@@H](C)O)C(=O)N[C@@H](C)C(=O)N[C@@H](C)C(=O)N[C@@H](CCCCN)C(=O)N2)NC(=O)[C@H](Cc2ccccc2)NC(=O)[C@H](CO)NC(=O)[C@H](CC(C)C)NC(=O)[C@H](CCCNC(=N)N)NC(=O)[C@H](Cc2ccc(O)cc2)NC(=O)[C@H](CCCCN)NC1=O [[Ala15, Lys16, Nle21,Arg30]ShK-amide] | 1.71 | 0.329 | 1.35
CCCC[C@@H]1NC(=O)[C@H](CO)NC(=O)[C@H](Cc2c[nH]cn2)NC(=O)[C@H](CCCCN)NC(=O)[C@@H]2CSSC[C@@H]3NC(=O)[C@H]([C@@H](C)O)NC(=O)[C@H](CCCCN)NC(=O)[C@H](CCCNC(=N)N)NC(=O)[C@H](CSSC[C@H](NC(=O)[C@H](CCCNC(=N)N)NC(=O)[C@H](CO)NC(=O)[C@H](CCCCN)NC(=O)[C@@H]4CCCN4C(=O)[C@H]([C@@H](C)CC)NC(=O)[C@H]([C@@H](C)O)NC(=O)[C@H](CC(=O)O)NC(=O)[C@H]([C@@H](C)CC)NC(=O)[C@@H](NC(=O)[C@H](CO)NC(=O)[C@@H](N)CCCNC(=N)N)CSSC[C@@H](C(N)=O)NC(=O)[C@H]([C@@H](C)O)NC(=O)CNC3=O)C(=O)N[C@@H]([C@@H](C)O)C(=O)N[C@@H](C)C(=O)N[C@@H](C)C(=O)N[C@@H](CCCCN)C(=O)N2)NC(=O)[C@H](Cc2ccccc2)NC(=O)[C@H](CO)NC(=O)[C@H](CC(C)C)NC(=O)[C@H](CCCNC(=N)N)NC(=O)[C@H](Cc2ccc(O)cc2)NC(=O)[C@H](CCCCN)NC1=O [[Ala15, Lys16,Nle21]ShK-amide] | 1.87 | 0.127 | 0.952
CC[C@H](C)[C@@H]1NC(=O)[C@@H](NC(=O)[C@H](CO)NC(=O)[C@@H](N)CCCNC(=N)N)CSSC[C@@H](C(=O)O)NC(=O)[C@H]([C@@H](C)O)NC(=O)CNC(=O)[C@@H]2CSSC[C@@H]3NC(=O)[C@H](CCCCN)NC(=O)[C@H](C)NC(=O)[C@H](C)NC(=O)[C@H]([C@@H](C)O)NC(=O)[C@H](CSSC[C@H](NC(=O)[C@H](Cc4ccccc4)NC(=O)[C@H](CO)NC(=O)[C@H](CC(C)C)NC(=O)[C@H](CCCNC(=N)N)NC(=O)[C@H](Cc4ccc(O)cc4)NC(=O)[C@H](CCCCN)NC(=O)[C@H](CCSC)NC(=O)[C@H](CO)NC(=O)[C@H](Cc4c[nH]cn4)NC(=O)[C@H](CCCCN)NC3=O)C(=O)N[C@@H](CCCNC(=N)N)C(=O)N[C@@H](CCCCN)C(=O)N[C@@H]([C@@H](C)O)C(=O)N2)NC(=O)[C@H](CCCNC(=N)N)NC(=O)[C@H](CO)NC(=O)[C@H](CCCCN)NC(=O)[C@@H]2CCCN2C(=O)[C@H]([C@@H](C)CC)NC(=O)[C@H]([C@@H](C)O)NC(=O)[C@H](CC(=O)O)NC1=O [[Ala15, Lys16]ShK] | 0.052 | 0.96 | 0.057
